According to patent US6596873B1, “2-and 2,5-substituted phenylketoenols” (Bayer Aktiengesellschaft, priority 1996, dated 2003):

How the values were obtained:
Assay type in all cases: in vivo
[1] = test system: fruit tree spider mite (Panonychus ulmi); assay: Panonychus test; conditions: active compound concentration of 0.004%, after 7 days; plum trees sprayed
Method: Panonychus Test [table] To prepare a suitable preparation of active compound, 1 part by weight of active compound is mixed with the stated amount of solvent and the stated amount of emulsifier, and the concentrate is diluted with water to the desired concentration. Plum trees (Prunus domestica) approximately 30 cm in height which are severely infested by all stages of the fruit tree spider mite (Panonychus ulmi) are sprayed with an active compound preparation of the desired concentration. After the specified period of time, the destruction in % is determined. 100% means that all the spider mites have been killed; 0% means that none of the spider mites have been killed.

[2] = test system: mustard beetle larvae (Phaedon cochleariae); assay: Phaedon larvae test; conditions: active compound concentration of 0.1%, after 7 days; cabbage leaves dipped
Method: (§1) Phaedon Larvae Test [table] To produce a suitable preparation of active compound, 1 part by weight of active compound is mixed with the stated amount of solvent and the stated amount of emulsifier, and the concentrate is diluted with water to the desired concentration. Cabbage leaves (Brassica oleracea) are treated by being dipped into the preparation of the active compound of the desired concentration and are infested with mustard beetle larvae (Phaedon cochleariae) while the leaves are still moist. After the specified period of time, the destruction in % is determined. 100% means that all the beetle larvae have been killed; 0% means that none of the beetle larvae have been killed.

[3] = test system: caterpillars of the diamond-back moth (Plutella maculipennis); assay: Plutella test; conditions: active compound concentration of 0.1%, after 7 days; cabbage leaves dipped
Method: Plutella Test [table] To produce a suitable preparation of active compound, 1 part by weight of active compound is mixed with the stated amount of solvent and the stated amount of emulsifier, and the concentrate is diluted with water to the desired concentration. Cabbage leaves (Brassica oleracea) are treated by being dipped into the preparation of active compound of the desired concentration and are infested with caterpillars of the diamond-back moth (Plutella maculipennis) while the leaves are still moist. After the specified period of time, the destruction in % is determined. 100% means that all the caterpillars have been killed, 0% means that none of the caterpillars have been killed.

[4] = test system: caterpillars of the owlet moth (Spodoptera frugiperda); assay: Spodoptera test; conditions: active compound concentration of 0.1%, after 7 days; cabbage leaves dipped
Method: To produce a suitable preparation of active compound, 1 part by weight of active compound is mixed with the stated amount of solvent and the stated amount of emulsifier, an d the concentrate is diluted with water to the d esired concentration.
Cabbage leaves (Brassica oleracea) are treated by being dipped into the preparation of the active compound of the desired concentration and are infested with caterpillars of the owlet moth (Spodoptera frugiperda) as long, as the leaves are still moist.
After the specified period of time, the destruction in % is determined. 100% means that all the caterpillars have been killed; 0% means that none of the caterpiliars have been killed.

[5] = test system: larvae of the green rice leaf hopper (Nephotettix cincticeps); assay: Nephotettix test; conditions: active compound concentration of 0.1%, after 6 days; rice seedlings dipped
Method: as §1, with “Nephotettix” for “Phaedon Larvae”, “Rice seedlings (Oryzae sativa)” for “Cabbage leaves (Brassica oleracea)”, “with” for “with mustard beetle”, “of the green rice leaf hopper (Nephotettix cincticeps)” for “(Phaedon cochleariae)”, “seedlings” for “leaves”, “the” for “the beetle”

CC(C)(C)C(=O)OC1=C(c2ccccc2Cl)C(=O)OC12CCCCC2 [Example I-2-b-1]
efficacy (destruction in %) [1]: 100%

Cc1ccccc1-c1c(O)c(C)c(-c2ccccn2)oc1=O [Example I-4-a-1]
destruction in % [2]: 100% | destruction in % [3]: 100% | destruction in % [4]: 85% | destruction in % [5]: 100%

Cc1ccccc1C1=C(O)C2(CCC(C)CC2)NC1=O (centres unmarked) [Example I-1-a-1]
destruction in % [2]: 100% | destruction in % [4]: 85% | destruction in % [5]: 100%
